Source: patent publication US6441021B1, “Sulfonated amino acid derivatives and metalloproteinase inhibitors containing the same” (Shionogi & Co., Ltd., priority 1996, dated 2002)
Read-outs that look alike come from different tables or passages of the source.

Tests used:
[1] = target: T1, MMP-9 (92 kDa, gelatinase B; type IV collagenase) (Homo sapiens, UniProt P14780); test: Assay of type IV collagenase inhibitors: activated MMP-9 with type IV collagenase activity kit substrate, fluorescent intensity; type: biochemical
T1 construct: endogenous in cells; enzyme purified from the conditioned medium
T1 sequence (P14780 107-707 limits assumed): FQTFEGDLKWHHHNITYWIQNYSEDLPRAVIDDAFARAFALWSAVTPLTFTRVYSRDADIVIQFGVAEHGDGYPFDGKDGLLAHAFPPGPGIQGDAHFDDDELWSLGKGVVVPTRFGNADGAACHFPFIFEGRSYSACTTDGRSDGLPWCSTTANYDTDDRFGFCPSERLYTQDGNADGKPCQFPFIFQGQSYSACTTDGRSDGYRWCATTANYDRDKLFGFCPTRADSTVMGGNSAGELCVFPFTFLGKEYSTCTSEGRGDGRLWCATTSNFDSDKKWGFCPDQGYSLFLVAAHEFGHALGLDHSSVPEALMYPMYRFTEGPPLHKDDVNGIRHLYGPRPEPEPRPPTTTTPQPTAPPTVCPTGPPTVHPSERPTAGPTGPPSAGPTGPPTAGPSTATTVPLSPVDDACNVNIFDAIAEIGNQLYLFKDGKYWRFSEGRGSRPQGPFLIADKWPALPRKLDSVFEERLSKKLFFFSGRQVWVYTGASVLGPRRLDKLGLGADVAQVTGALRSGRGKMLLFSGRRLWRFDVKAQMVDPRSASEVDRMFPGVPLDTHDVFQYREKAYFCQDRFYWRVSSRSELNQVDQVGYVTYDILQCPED
Experimental: (1) Isolation and Purification of MMP-9 (92 kDa, Gelatinase B)
Type IV collagenase (MMP-9) was purified according to the methods descrived in the following literature.
Subsequently, activated MMP-9 was obtained by treating the pro-MMP-9 with trypsin.
(2) Assay Methods of Type IV Collagenase Inhibitors
Collagenase assay was performed using the activated MMP-9 described above and the substrate supplied in the type IV collagenase activity kit (YAGAI, inc.), according to the manufacturer's protocol. The following 4 assays are performed per compound (inhibitor).
(A) substrate (type IV collagenase), enzyme (MMP-9), inhibitor
(B) substrate (type IV collagenase), inhibitor
(C) substrate (type IV collagenase), enzyme (MMP-9)
(D) substrate (type IV collagenase)
According to the manufacturer's protocol, fluorescent intensity was measured and percent inhibition was determined by the following equation.
Inhibition (%)={1−(A−B)/(C−D)}×100

[2] = inhibition of type IV collagenase (MMP-9), concentration at which percent inhibition reaches 50%

SMILES	IC50 [1]	melting point	IC50 [1, 2]
O=C(O)[C@@H](Cc1ccccc1)NS(=O)(=O)c1ccc(-c2nnn(-c3ccc(O)cc3)n2)cc1 [Example 239]	243 nM	226 to 228 °C	
CC(C)[C@@H](NS(=O)(=O)c1ccc(-c2nnn(-c3ccc(O)cc3)n2)cc1)C(=O)O [Example 223]	349 nM	190 °C (dec.)	
CSc1ccc(-c2ccc(S(=O)(=O)N(C)[C@@H](C(=O)O)C(C)C)s2)cc1 [Example 259]	130 nM	141 to 144 °C	
CC(C)C[C@H](C(=O)O)N(C)S(=O)(=O)c1ccc(-c2nnn(-c3ccccc3)n2)cc1 [Example 257]	776 nM	132 to 132.5 °C	
CSc1ccc(C(=O)Nc2ccc(S(=O)(=O)N[C@@H](C(=O)O)C(C)C)cc2)cc1 [Example 197]		231 to 234 °C	16.1 nM
O=C(Nc1ccc(S(=O)(=O)N[C@H](Cc2c[nH]c3ccccc23)C(=O)O)cc1)c1ccccc1 [Example 177]		215 to 217 °C	684 nM
O=C(O)C(Cc1c[nH]c2ccc(F)cc12)NS(=O)(=O)c1ccc(-c2nnn(-c3ccccc3)n2)cc1 (stereo not drawn) [Example 213]	128 nM	224 to 225 °C	
CC(C)[C@H](C(=O)NO)N(C)S(=O)(=O)c1ccc(Oc2ccccc2)cc1 [Example 253]	0.039 nM	110 to 111 °C	
O=C(O)[C@@H](Cc1ccccc1)NS(=O)(=O)c1ccc(-c2nnn(-c3ccc(C(F)(F)F)cc3)n2)cc1 [Example 229]	215 nM	197 to 198 °C	
CC(C)[C@@H](NS(=O)(=O)c1ccc(NC(=O)c2ccc(Br)cc2)cc1)C(=O)O [Example 202]	11.4 nM	229 to 230 °C	
CC(C)[C@@H](NS(=O)(=O)c1ccc(NC(=O)c2ccc(F)cc2)cc1)C(=O)O [Example 198]	493 nM	235 to 236 °C	
O=C(Nc1ccc(S(=O)(=O)N[C@H](Cc2ccccc2)C(=O)O)cc1)c1ccccc1 [Example 188]		114 to 115 °C	843 nM
O=C(Nc1ccc(S(=O)(=O)N[C@H](Cc2ccccc2)C(=O)O)cc1)c1ccc(Cl)nc1 [Example 193]	722 nM	201 to 203 °C	
O=C(Nc1ccc(S(=O)(=O)N[C@H](Cc2ccccc2)C(=O)O)cc1)c1ccc(Br)cc1 [Example 189]	37.5 nM	242 to 243 °C	
Nc1ccc(C(=O)Nc2ccc(S(=O)(=O)N[C@H](Cc3c[nH]c4ccccc34)C(=O)O)cc2)cc1 [Example 179]	2360 nM	216 to 218 °C	
Cc1cccc2[nH]cc(CC(NS(=O)(=O)c3ccc(-c4nnn(-c5ccccc5)n4)cc3)C(=O)O)c12 (stereo not drawn) [Example 216]	107 nM	145 to 148 °C	
CSc1ccc(C(=O)Nc2ccc(S(=O)(=O)N[C@H](Cc3ccccc3)C(=O)O)cc2)cc1 [Example 191]	9.5 nM	232 to 235 °C	
Cc1cnc(C(=O)Nc2ccc(S(=O)(=O)N[C@H](Cc3ccccc3)C(=O)O)cc2)cn1 [Example 204]	3950 nM	236 to 237 °C	
CCC(C)[C@@H](NS(=O)(=O)c1ccc(-c2nnn(-c3ccccc3)n2)cc1)C(=O)O (stereo partly drawn) [Example 221]	316 nM	205 to 207 °C	
CC(C)[C@H](C(=O)NO)N(Cc1ccccc1)S(=O)(=O)c1ccc(Oc2ccccc2)cc1 [Example 254]	0.63 nM	148 to 150 °C	

Second part, the compound after the results:

IC50 [1]	melting point	IC50 [1, 2]	SMILES
324 nM	218 to 220 °C		O=C(Nc1ccc(S(=O)(=O)N[C@H](Cc2ccccc2)C(=O)O)cc1)c1ccc(F)cc1 [Example 192]
2850 nM	182 to 184 °C		O=C(O)[C@@H](Cc1ccccc1)NS(=O)(=O)c1ccc(-c2nnn(-c3ccc(Oc4ccccc4)cc3)n2)cc1 [Example 238]
98.2 nM	237 to 239 °C		COc1ccc(C(=O)Nc2ccc(S(=O)(=O)N[C@H](Cc3ccccc3)C(=O)O)cc2)cc1 [Example 186]
	221 to 222 °C	110 nM	CC(C)[C@@H](NS(=O)(=O)c1ccc(-c2nnn(-c3ccccc3)n2)cc1)C(=O)O [Example 215]
393 nM	199 to 202 °C		Cn1cc(CC(NS(=O)(=O)c2ccc(-c3nnn(-c4ccccc4)n3)cc2)C(=O)O)c2ccccc21 (stereo not drawn) [Example 212]
19.8 nM	203 to 205 °C		O=C(O)[C@@H](Cc1c[nH]c2ccccc12)NS(=O)(=O)c1ccc(-c2nnn(-c3ccc(F)cc3)n2)cc1 [Example 227]
	242 to 244 °C	59.7 nM	Cc1ccc(C(=O)Nc2ccc(S(=O)(=O)N[C@H](Cc3ccccc3)C(=O)O)cc2)cc1 [Example 190]
601 nM	206 to 207 °C		CC(C)[C@H](C(=O)O)N(C)S(=O)(=O)c1ccc(-c2nnn(-c3ccccc3)n2)cc1 [Example 256]
304 nM	224 to 226 °C		CC(C)(C)c1ccc(-n2nnc(-c3ccc(S(=O)(=O)N[C@H](Cc4ccccc4)C(=O)O)cc3)n2)cc1 [Example 236]
166 nM	204 to 207 °C		COc1ccc(-n2nnc(-c3ccc(S(=O)(=O)N[C@@H](C(=O)O)C(C)(C)C)cc3)n2)cc1 [Example 226]
832 nM	202 to 204 °C		CC(C)C[C@@H](NS(=O)(=O)c1ccc(-c2nnn(-c3ccccc3)n2)cc1)C(=O)O [Example 214]
177 nM	235 to 239 °C		O=C(Nc1ccc(S(=O)(=O)N[C@H](Cc2ccccc2)C(=O)O)cc1)c1ccc([N+](=O)[O-])cc1 [Example 187]
16.5 nM	223 to 225 °C		CC(C)[C@@H](NS(=O)(=O)c1ccc(-c2nnn(-c3ccc(Cl)cc3)n2)cc1)C(=O)O [Example 244]
